Results: article PMC6804006, “Synthesis, Biological Activities and Docking Studies of Novel 4-(Arylaminomethyl)benzamide Derivatives as Potential Tyrosine Kinase Inhibitors” (Molecules, 2019)

How the values were obtained:
[1] = test system: OKP-GS (carcinoma of the kidney); assay: MTT anti-proliferative assay, OKP-GS; assay type: cell-based; conditions: Homo sapiens, 48 h, 50% growth inhibition
Method: (§1) Each in vitro experiment was performed at least in triplicate, and the standard deviation of absorbance was less than 10% of the mean. For the in vitro assays, a stock solution (1% DMSO in the appropriate buffer with the tested compound diluted under sonication) was prepared from which several dilutions were made with the appropriate buffer.
(§2) Human cell lines were obtained from the Institute of Cytology, Russian Academy of Sciences. […] Cellular sensitivities to clofarabine and its lipid derivatives were measured with the MTT assay. Cells were plated in triplicate in 96-well plates (10^5 cells/well for suspended cell cultures and 5 × 10^3 cells/well for monolayer cultures); on the same day (suspended cell cultures) or on the following day (monolayer cultures), compounds were added at the appropriate dilutions. Plates were incubated under standard conditions for 48 h. Thereafter, 10 μL of MTT (Sigma) in phosphate-buffered saline (5 mg/mL) was added. The plates were incubated for an additional 4 h, and 150 μL of dimethyl sulfoxide (DMSO) was added to dissolve the formazan crystals. The optical density was read on a HALO MPR-95 Microplate Reader (Dynamica Scientific Ltd., Australia) at 570 nm. The antiproliferative effects were determined as degrees of inhibition of tumor cells (%).

[2] = test system: HL-60 (promyelocytic leukemia); assay: MTT anti-proliferative assay, HL-60; assay type: cell-based, human; conditions: Homo sapiens, HL-60, 48 h, 50% growth inhibition
Method: as §1, §2

[3] = test system: K-562 (chronic myelogenous leukemia); assay: MTT anti-proliferative assay, K-562; assay type: cell-based; conditions: Homo sapiens, K562, 48 h, 50% growth inhibition
Method: as §1, §2

[4] = test system: RPMI 1788 (B lymphocyte, human normal cells); assay: MTT assay on normal cells RPMI 1788; assay type: cell-based; conditions: MTT 48 h
Method: as §1
Human cell lines were obtained from the Institute of Cytology, Russian Academy of Sciences. The cell lines studied were maintained in RPMI 1640 medium (AppliChem, Darmstadt, Germany) supplemented with 20% (HL-60, RPMI 1788) fetal calf serum (HyClone, Cramlington, UK), in DMEM (A 549) and Eagle’s MEM (AppliChem) (MCF7, HeLa) with 10% fetal calf serum (HyClone). Cells were cultivated at 37 °C in a humidified atmosphere of 5% CO2. Cellular sensitivities to clofarabine and its lipid derivatives were measured with the MTT assay. Cells were plated in triplicate in 96-well plates (10^5 cells/well for suspended cell cultures and 5 × 10^3 cells/well for monolayer cultures); on the same day (suspended cell cultures) or on the following day (monolayer cultures), compounds were added at the appropriate dilutions. Plates were incubated under standard conditions for 48 h. Thereafter, 10 μL of MTT (Sigma) in phosphate-buffered saline (5 mg/mL) was added. The plates were incubated for an additional 4 h, and 150 μL of dimethyl sulfoxide (DMSO) was added to dissolve the formazan crystals. The optical density was read on a HALO MPR-95 Microplate Reader (Dynamica Scientific Ltd., Australia) at 570 nm. The antiproliferative effects were determined as degrees of inhibition of tumor cells (%).

HER-2 = biological target: T1, HER-2 (Homo sapiens, UniProt P04626); assay: ADP-Glo kinase inhibitory assay, HER-2; assay type: biochemical; conditions: read-out: % Inhibition at 10 nM, HER-2
T1 construct: purchased Promega
T1 sequence (P04626 23-1255): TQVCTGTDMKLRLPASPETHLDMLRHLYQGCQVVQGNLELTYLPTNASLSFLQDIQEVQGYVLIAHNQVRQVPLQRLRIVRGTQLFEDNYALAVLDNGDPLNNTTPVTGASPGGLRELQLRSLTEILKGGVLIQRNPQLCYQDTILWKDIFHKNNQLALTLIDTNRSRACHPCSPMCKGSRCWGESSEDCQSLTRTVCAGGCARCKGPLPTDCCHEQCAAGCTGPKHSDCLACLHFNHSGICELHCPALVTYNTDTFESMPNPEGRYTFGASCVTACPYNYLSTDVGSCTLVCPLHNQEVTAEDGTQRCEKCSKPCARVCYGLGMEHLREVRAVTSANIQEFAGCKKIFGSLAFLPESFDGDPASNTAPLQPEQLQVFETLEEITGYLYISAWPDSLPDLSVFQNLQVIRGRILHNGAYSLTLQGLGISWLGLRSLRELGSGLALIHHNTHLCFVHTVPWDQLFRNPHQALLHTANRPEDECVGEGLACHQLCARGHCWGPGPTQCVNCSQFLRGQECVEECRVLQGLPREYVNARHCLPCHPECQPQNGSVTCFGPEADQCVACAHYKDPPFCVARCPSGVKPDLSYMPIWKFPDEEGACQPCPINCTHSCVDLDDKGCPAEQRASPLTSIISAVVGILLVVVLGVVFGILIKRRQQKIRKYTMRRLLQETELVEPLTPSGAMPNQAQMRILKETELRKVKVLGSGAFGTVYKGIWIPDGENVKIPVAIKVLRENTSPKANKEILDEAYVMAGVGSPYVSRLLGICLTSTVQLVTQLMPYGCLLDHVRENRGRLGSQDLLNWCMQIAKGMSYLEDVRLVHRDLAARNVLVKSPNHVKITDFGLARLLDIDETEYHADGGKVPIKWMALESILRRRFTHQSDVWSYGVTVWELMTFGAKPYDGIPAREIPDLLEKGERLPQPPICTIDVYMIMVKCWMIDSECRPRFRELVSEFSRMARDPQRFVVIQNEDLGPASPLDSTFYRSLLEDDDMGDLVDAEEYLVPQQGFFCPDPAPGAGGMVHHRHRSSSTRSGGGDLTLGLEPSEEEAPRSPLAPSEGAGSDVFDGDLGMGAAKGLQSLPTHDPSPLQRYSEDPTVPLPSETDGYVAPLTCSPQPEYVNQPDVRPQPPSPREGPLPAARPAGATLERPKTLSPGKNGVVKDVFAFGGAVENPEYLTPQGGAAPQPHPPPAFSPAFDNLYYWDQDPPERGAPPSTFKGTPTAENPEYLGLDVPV
Method: (§3) We investigated the kinase selectivity of targeted compounds against eight receptor tyrosine kinases including EGFR (epidermal growth factor receptor), HER-2 and HER4 (human epidermal growth factor receptor), IGF1R (insulin like growth factor 1 receptor), InsR (gene insulin receptor), KDR (kinase insert domain receptor), and PDGFRa and PDGFRb (platelet-derived growth factor receptors). The assay was performed using the Kinase-Glo Plus luminescence kinase assay kit (TK-1+ADP-Glo™, Promega, San Diego, CA, USA). It measures kinase activity by quantitating the amount of ATP remaining in solution following a kinase reaction.
(§4) The assay was performed using a Kinase Selectivity Profiling System (TK-1+ADP-Glo™ Assay and TK-2+ADP-Glo™ Assay, Promega), where the kinase activity was measured by quantifying the amount of ADP produced during a kinase reaction. The assay is performed in two steps; firstly, after the kinase reaction, an equal volume of ADP-Glo™ Reagent is added to terminate the kinase reaction and deplete the remaining ATP. Secondly, the Kinase Detection Reagent is added to simultaneously convert ADP to ATP and allow the newly synthesized ATP to be measured using a luciferase/luciferin reaction. The luminescent signal generated is proportional to the ADP concentration produced and is correlated with kinase activity. Our compounds were diluted with kinase buffer (5% DMSO), and 1 μL of the dilution was added to a 5-μL reaction so that the final concentration of DMSO was 1% in all of reactions. All of the enzymatic reactions were conducted at 23 °C for 60 min. The 5-μL reaction mixture contained 1µL of the compound solution, 2µL of the enzyme solution, and 2 µL of kinase substrate. After the enzymatic reaction, 5 µL of ADP-Glo™ Reagent (Promega, USA) was added to each reaction, and the plate was incubated for 40 min at 23 °C. Then, 10 µL of Kinase Detection Reagent (Promega, USA) was added to each reaction, and the plate was incubated for 30 min at 23 °C. Luminescence signal was measured using an Infinite M 200 plate reader (Tecan, Switzerland).
(§5) Kinase activity assays were performed in duplicate at each concentration. The luminescence data were analyzed using the computer software, Magellan™. The difference between luminescence intensities in the absence of Kinase (Lut) and in the presence of Kinase (Luc) was defined as 100% activity (Lut − Luc).

IGF1R = biological target: T2, IGF1R (Homo sapiens, UniProt P08069); assay: ADP-Glo kinase inhibitory assay, IGF1R; assay type: biochemical; conditions: read-out: % Inhibition at 10 nM, IGF1R
T2 construct: purchased Promega
T2 sequence (P08069 31-1367): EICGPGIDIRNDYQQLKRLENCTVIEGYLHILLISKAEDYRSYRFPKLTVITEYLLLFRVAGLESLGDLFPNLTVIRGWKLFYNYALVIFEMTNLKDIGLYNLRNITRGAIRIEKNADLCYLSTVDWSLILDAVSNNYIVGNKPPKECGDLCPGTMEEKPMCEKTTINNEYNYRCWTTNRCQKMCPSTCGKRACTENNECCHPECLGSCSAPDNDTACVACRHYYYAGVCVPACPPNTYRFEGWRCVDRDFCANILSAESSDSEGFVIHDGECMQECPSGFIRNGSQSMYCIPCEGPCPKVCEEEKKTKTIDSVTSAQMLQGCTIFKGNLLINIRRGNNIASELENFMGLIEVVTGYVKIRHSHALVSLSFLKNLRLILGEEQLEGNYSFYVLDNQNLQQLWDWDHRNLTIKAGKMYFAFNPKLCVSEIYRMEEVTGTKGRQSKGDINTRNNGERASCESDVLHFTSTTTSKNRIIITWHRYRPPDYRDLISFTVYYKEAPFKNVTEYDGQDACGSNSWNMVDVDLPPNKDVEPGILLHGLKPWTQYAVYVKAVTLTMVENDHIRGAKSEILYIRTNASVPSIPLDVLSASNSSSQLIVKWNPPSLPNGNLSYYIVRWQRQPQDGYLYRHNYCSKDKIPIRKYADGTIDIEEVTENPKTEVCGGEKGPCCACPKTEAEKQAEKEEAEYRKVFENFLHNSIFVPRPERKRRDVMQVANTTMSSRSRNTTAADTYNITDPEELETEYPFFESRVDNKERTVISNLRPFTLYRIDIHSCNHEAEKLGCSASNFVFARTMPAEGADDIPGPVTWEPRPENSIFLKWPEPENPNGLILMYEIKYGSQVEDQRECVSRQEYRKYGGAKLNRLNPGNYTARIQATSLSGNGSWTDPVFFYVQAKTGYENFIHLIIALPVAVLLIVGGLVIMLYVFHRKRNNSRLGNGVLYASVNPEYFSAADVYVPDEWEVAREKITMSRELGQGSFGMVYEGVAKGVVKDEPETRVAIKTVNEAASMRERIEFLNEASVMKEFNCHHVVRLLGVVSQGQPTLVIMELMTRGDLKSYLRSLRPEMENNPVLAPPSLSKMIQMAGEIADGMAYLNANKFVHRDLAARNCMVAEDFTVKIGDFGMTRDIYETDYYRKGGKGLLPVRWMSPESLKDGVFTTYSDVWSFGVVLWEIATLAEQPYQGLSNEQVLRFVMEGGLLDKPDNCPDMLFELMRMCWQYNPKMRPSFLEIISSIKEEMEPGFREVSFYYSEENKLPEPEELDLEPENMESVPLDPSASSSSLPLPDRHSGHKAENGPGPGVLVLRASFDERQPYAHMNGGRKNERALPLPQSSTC
Method: as §3, §4, §5

EGFR = biological target: T3, EGFR (Homo sapiens, UniProt P00533); assay: ADP-Glo kinase inhibitory assay, EGFR; assay type: biochemical; conditions: read-out: % Inhibition at 10 nM, EGFR
T3 construct: purchased Promega
Method: as §3, §4, §5

KDR (VEGFR2) = biological target: T4, KDR (VEGFR2) (Homo sapiens, UniProt P35968); assay: ADP-Glo kinase inhibitory assay, KDR; assay type: biochemical; conditions: 10 nM
T4 construct: purchased Promega
Method: as §3
Vascular endothelial growth factor receptor 2 (VEGFR2), also called kinase insert domain receptor (KDR), is a tyrosine kinase receptor for VEGFs that plays a central role in tumor angiogenesis; therefore, the inhibition of VEGFR2 is a promising therapeutic strategy for inhibiting angiogenesis and tumor growth.
as §4, §5

InsR = biological target: T5, InsR (Homo sapiens, UniProt P06213); assay: ADP-Glo kinase inhibitory assay, InsR; assay type: biochemical; conditions: for inhibition at 0.01 µM: read-out: % Inhibition at 10 nM, InsR
T5 construct: purchased Promega
Method: as §3, §4, §5

PDGFRb = biological target: T6, PDGFRb (Homo sapiens, UniProt P09619); assay: ADP-Glo kinase inhibitory assay, PDGFRb; assay type: biochemical; conditions: read-out: % Inhibition at 10 nM, PDGFRb
T6 construct: purchased Promega
T6 sequence (P09619 33-1106): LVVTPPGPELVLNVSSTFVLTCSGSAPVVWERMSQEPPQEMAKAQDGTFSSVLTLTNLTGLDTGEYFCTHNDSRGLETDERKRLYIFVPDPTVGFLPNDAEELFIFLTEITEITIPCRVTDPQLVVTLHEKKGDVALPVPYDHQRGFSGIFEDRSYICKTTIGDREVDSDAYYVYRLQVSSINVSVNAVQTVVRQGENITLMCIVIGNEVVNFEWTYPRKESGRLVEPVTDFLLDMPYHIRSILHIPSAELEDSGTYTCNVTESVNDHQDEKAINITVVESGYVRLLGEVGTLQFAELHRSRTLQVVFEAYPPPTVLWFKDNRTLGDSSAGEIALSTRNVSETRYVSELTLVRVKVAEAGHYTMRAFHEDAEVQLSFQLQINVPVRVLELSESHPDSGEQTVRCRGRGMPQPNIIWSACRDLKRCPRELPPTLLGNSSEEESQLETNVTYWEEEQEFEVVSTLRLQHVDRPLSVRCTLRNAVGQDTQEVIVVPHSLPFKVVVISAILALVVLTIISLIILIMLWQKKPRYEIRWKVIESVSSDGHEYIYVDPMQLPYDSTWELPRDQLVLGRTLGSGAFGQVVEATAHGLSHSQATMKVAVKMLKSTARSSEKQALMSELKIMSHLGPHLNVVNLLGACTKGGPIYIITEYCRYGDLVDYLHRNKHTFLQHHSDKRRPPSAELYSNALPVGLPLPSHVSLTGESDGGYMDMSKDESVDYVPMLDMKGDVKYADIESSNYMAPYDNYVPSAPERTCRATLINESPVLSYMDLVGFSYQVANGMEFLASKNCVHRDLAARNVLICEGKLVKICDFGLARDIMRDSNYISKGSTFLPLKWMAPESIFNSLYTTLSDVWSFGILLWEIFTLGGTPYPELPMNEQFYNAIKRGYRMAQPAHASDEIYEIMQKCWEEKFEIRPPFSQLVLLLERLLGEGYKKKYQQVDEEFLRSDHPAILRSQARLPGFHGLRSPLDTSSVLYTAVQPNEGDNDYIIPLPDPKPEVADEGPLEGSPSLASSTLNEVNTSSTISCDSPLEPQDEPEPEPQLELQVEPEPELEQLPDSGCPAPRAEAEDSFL
Method: as §3, §4, §5

A549 (lung carcinoma) = assay: MTT anti-proliferative assay, A-549; assay type: cell-based; conditions: Homo sapiens, 48 h, 50% growth inhibition
Method: as §1, §2

HeLa (cervix carcinoma) = assay: MTT anti-proliferative assay, HeLa; assay type: cell-based; conditions: Homo sapiens, 48 h, 50% growth inhibition
Method: as §1, §2

PDGFRa = biological target: T7, PDGFRa (Homo sapiens, UniProt P16234); assay: ADP-Glo kinase inhibitory assay, PDGFRa; assay type: biochemical; conditions: read-out: % Inhibition at 10 nM, PDGFRa
T7 construct: purchased Promega
T7 sequence (P16234 24-1089): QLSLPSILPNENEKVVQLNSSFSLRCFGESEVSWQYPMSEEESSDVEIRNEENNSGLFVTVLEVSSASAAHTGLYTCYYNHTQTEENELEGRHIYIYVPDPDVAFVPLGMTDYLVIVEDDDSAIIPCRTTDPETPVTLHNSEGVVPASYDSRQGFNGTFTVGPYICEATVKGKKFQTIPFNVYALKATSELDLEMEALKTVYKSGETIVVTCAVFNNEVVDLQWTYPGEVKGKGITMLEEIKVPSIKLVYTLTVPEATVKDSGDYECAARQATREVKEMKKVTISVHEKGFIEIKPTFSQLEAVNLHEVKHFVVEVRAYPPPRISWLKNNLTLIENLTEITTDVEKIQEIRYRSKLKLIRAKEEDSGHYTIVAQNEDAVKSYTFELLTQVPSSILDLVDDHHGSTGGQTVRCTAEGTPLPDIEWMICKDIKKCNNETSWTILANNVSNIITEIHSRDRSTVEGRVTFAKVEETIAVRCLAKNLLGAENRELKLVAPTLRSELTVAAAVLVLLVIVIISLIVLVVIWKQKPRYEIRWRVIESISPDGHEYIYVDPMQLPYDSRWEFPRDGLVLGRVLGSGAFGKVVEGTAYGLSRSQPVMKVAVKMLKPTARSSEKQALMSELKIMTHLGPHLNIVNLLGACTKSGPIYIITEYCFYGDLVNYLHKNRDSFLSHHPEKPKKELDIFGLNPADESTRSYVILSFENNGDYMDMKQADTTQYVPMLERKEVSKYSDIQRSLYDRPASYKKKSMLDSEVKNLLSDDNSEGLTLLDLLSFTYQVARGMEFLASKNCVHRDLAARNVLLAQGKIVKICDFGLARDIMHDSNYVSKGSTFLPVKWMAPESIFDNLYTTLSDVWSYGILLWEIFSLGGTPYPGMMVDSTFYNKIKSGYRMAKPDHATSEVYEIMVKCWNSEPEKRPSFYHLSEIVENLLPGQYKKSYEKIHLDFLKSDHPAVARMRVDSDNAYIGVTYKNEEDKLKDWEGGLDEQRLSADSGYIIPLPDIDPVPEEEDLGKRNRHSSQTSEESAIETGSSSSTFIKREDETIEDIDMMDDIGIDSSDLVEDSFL
Method: as §3, §4, §5

HER-4 = biological target: T8, HER-4 (Homo sapiens, UniProt Q15303); assay: ADP-Glo kinase inhibitory assay, HER-4; assay type: biochemical; conditions: for inhibitory activity in relation to HER-4, in words: 10 nM, compared with imatinib; for inhibition at 0.01 µM: read-out: % Inhibition at 10 nM, HER-4
T8 construct: purchased Promega
Method: as §3, §4, §5

[5] = test system: MCF-7 (breast adenocarcinoma); assay: MTT anti-proliferative assay, MCF-7; assay type: cell-based; conditions: Homo sapiens, MCF7, 48 h, 50% growth inhibition
Method: as §1, §2

Compound | IC50 [1] [µM] | IC50 [2] [µM] | IC50 [3] [µM] | inhibition at 100 µM [4] [%] | inhibition at 0.01 µM (HER-2) [%] | melting point [°C] | inhibition at 0.01 µM (IGF1R) [%] | inhibition at 0.01 µM (EGFR) [%] | inhibition at 0.01 µM (KDR (VEGFR2)) [%] | inhibition at 0.01 µM (InsR) [%] | inhibition at 0.01 µM (PDGFRb) [%] | IC50 (A549 (lung carcinoma)) [µM] | IC50 (HeLa (cervix carcinoma)) [µM] | inhibition at 0.01 µM (PDGFRa) [%] | inhibitory activity in relation to HER-4, in words (HER-4) | inhibition at 0.01 µM (HER-4) [%] | IC50 [5] [µM] | selectivity for the gene insulin receptor, in words (InsR; 10 nM, panel of eight receptor tyrosine kinases)
Cc1cn(-c2cc(NC(=O)c3ccc(C)c(Nc4nccc(-c5cccnc5)n4)c3)cc(C(F)(F)F)c2)cn1 [Nilotinib, reference compound] | 55 | 55 | < 0.1 | < 0.1 |  |  |  |  |  |  |  |  |  |  |  |  |  | 
Cc1cn(-c2cc(NC(=O)c3ccc(CN4CCN(C(=O)c5cccnc5)CC4)cc3)cc(C(F)(F)F)c2)cn1 [Compound 28l] | > 100 | 53.5 | 4.5 |  | 0 | 96 to 100 | 0 | 0 | 17 | 0 | 7 | > 100 | > 100 | 0 | comparable to imatinib | 51 | 77 | 
CNC(=O)c1cc(Oc2ccc(NCc3ccc(C(=O)Nc4cc(-n5cnc(C)c5)cc(C(F)(F)F)c4)cc3)cc2)ccn1 [Compound 10, N-methyl-4-(4-((4-((3-(4-methyl-1H-imidazol-1-yl)-5-(trifluoromethyl)phenyl)carbamoyl)benzyl)amino)phenoxy)picolinamide] | 81 | 8.2 | 40 | 10.4 | 0 | 153 to 156 | 0 | 65 | 27 | 46 | 0 | > 100 | > 100 | 66 | comparable to imatinib | 51 | > 100 | 
CNC(=O)c1cc(Oc2ccc(NC(=O)Nc3ccc(Cl)c(C(F)(F)F)c3)cc2)ccn1 [Sorafenib, reference compound] | 51 |  |  |  |  |  |  |  |  |  |  | 58 |  |  |  |  | 55 | 
Cc1cn(-c2cc(NC(=O)c3ccc(CCl)cc3)cc(C(F)(F)F)c2)cn1 [Compound 5, 4-(Chloromethyl)-N-(3-(4-methyl-1H-imidazol-1-yl)-5-(trifluoromethyl)phenyl)benzamide] | 70 | 45 | 69 | < 0.1 | 0 |  | 0 | 0 | 0 | 57 | 0 | 53.5 | 51.8 | 0 |  | 0 | 54 | high selectivity
Cc1cn(-c2cc(NC(=O)c3ccc(CNc4cc([N+](=O)[O-])ccc4C)cc3)cc(C(F)(F)F)c2)cn1 [Compound 9, N-(3-(4-methyl-1H-imidazol-1-yl)-5-(trifluoromethyl)phenyl)-4-(((2-methyl-5-nitrophenyl)amino)methyl)benzamide] | > 100 | 57 | 51 |  |  | 113 to 115 |  |  |  |  |  | > 100 |  |  |  |  | > 100 | 
Cc1cn(-c2cc(NCc3ccc(C(=O)Nc4cc(-n5cnc(C)c5)cc(C(F)(F)F)c4)cc3)cc(C(F)(F)F)c2)cn1 [Compound 8, N-(3-(4-methyl-1H-imidazol-1-yl)-5-(trifluoromethyl)phenyl)-4-(((3-(4-methyl-1H-imidazol-1-yl)-5-(trifluoromethyl)phenyl)amino)methyl)benzamide] | > 100 |  |  | 19.3 |  | 200 to 202 |  |  |  |  |  | 85 | 87 |  |  |  | 9.5 | 
